We go through seven compounds from PubChem BioAssay (NCI).

Values joined by “and” are separate entries in the source; they are usually repeats but may differ in a detail not shown here. Equal entries are not always repeated.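 Protocol summary: plate cells (96-well), add compound at 5 concentrations, incubate 48 h, interpolate endpoints linearly. GI50 = concentration required for 50% inhibition of growth. TGI: concentration producing complete growth inhibition.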 A value given as a limit tells only on which side of the number the result lay.

Common to all, as to test: DTP human tumour cell line panel, 48 h
For experiment [1], the system named is LOX IMVI melanoma.
Experiment [2] deals with KM12 colon.
Experiment [3] deals with SK-MEL-5 melanoma.
Experiment [4] concerns NCI/ADR-RES ovarian.
For experiment [5], the system named is SF-268 CNS.
The test system of experiment [6] is IGROV1 ovarian.
Experiment [7] deals with SK-MEL-2 melanoma.
Experiment [8] concerns MDA-MB-435.
The test system of experiment [9] is MALME-3M melanoma.
Experiment [10] has as its system SF-539 CNS.

For orientation: GI50 means the concentration that inhibits growth by half. As usually defined, the TGI is the concentration giving total growth inhibition. A lower TGI goes with more potent growth arrest. For the compound `CCN(Cc1ccc(F)cc1F)c1ccc(CO)c(Cl)c1`, the GI50 in experiment [1] was 14.4 µM; in experiment [2], 16.6 µM; in experiment [3], 5.75 µM; in [4], 12.6 µM; in [5], 22.7 µM; in experiment [6], 0.105 µM. In addition, the GI50 is 5.36 µM in [7], 21 µM in experiment [8], 18.2 µM in experiment [9] and 16.1 µM in [10]. The TGI in experiment [1] is 29 µM; in experiment [2], 32.9 µM; in experiment [3] it was 20.5 µM; in [4], 32 µM; in experiment [5] it was more than 66.9 µM; in experiment [6] it was 0.518 µM. The TGI was 21.3 µM in experiment [7], more than 59.6 µM in experiment [8], 42.8 µM in [9] and 31.7 µM in experiment [10].
For `CC(=O)C(C(=N)C#N)C(=O)Nc1ccccc1` (stereo not given), the TGI in experiment [1], in experiment [2], in [3], in experiment [4], in experiment [5] and in experiment [6] was more than 100 µM in each case. Besides, the TGI in experiment [7], in experiment [8], in experiment [9] and in [10] was more than 100 µM throughout.
Take `COc1cccc(-c2nc(-c3ccc(NS(=O)(=O)c4ccccc4)cc3)[nH]c2-c2ccnc(Br)c2)c1`: the GI50 in [1] is 1.56 µM; in [2], 2.65 µM; in experiment [3], 1.87 µM; in experiment [4] it was 3.44 µM; in experiment [5], 3.34 µM; in experiment [6] it was 3.84 µM. Moreover, the GI50 in [7] is 2.5 µM; in experiment [8] it was 2.51 µM; in [9], 1.76 µM; in [10] it was 2.53 µM. Further, the TGI in experiment [1] was 3.44 µM; in experiment [2], 8.74 µM; in [3], 3.49 µM; in [4], more than 100 µM; in [5], more than 100 µM; in experiment [6] it was more than 100 µM. The TGI in experiment [7] worked out at 6.62 µM; in experiment [8], 9.21 µM; in experiment [9] it was 5.22 µM; in [10], 8.03 µM.
Take `COc1ccc(C(=O)c2cc(OC)c(OC)c(OC)c2)cc1/C=C/C(=O)c1ccc(O)cc1`: the GI50 in experiment [1] was 1.75 µM; in experiment [2] it was 2.44 µM; in [3], 1.46 µM; in [4], 2.68 µM; in experiment [5], 3.98 µM; in experiment [6], 9.94 µM. The GI50 in [7] was 5.01 µM; in experiment [8], 1.18 µM; in experiment [9] it was 9.69 µM; in experiment [10], 2.72 µM. Also, the TGI in experiment [1] came to 3.9 µM; in [2], 7.05 µM; in experiment [3] it was 2.98 µM; in experiment [4], 8.09 µM; in experiment [5], 95.1 µM; in experiment [6], 34.8 µM. Also, the TGI was found to be 26.5 µM in experiment [7], 11.3 µM in experiment [8], 25.1 µM in [9] and 7.9 µM in experiment [10].
For `CC1/C=C/C=C/CC/C=C/C=C/C=C/C=C/C(OC2OC(C)C(O)C(N)C2O)CC2OC(CC(O)C(O)CCC(O)CC(O)CC(O)CC(=O)OC(C)C(C)C1O)CC(O)C2C(=O)O` (stereo not given), the GI50 in experiment [1] was 24.1 µg/mL; in experiment [2] it was 53 µg/mL; in experiment [3] it was 47.3 µg/mL; in experiment [4] it was 41 µg/mL; in experiment [5], 33.9 µg/mL; in experiment [6], 23.4 µg/mL. The GI50 is 31.8 µg/mL in experiment [7], 28.1 µg/mL in experiment [8], 28.1 µg/mL in [9] and 28 µg/mL in experiment [10]. The TGI in experiment [1] is 33.1 µM and 47.9 µg/mL; in [2] it was 61.5 µM and 150 µg/mL; in experiment [3] it was 58.9 µM and 150 µg/mL; in [4] it was 45.2 µM and 93.8 µg/mL; in experiment [5], 56.9 µM and 70.7 µg/mL; in [6] it was 32.2 µM and 52.1 µg/mL. Further, the TGI in experiment [7] was 92.4 µM and 94.1 µg/mL; in [8], 31.9 µM and 50.1 µg/mL; in [9], 33 µM and 51.3 µg/mL; in experiment [10], 32.3 µM and 64.1 µg/mL.
With `C=C1C(=O)O[C@H]2[C@H]1CC/C(COC(=O)/C=C/c1cccnc1)=C\CC[C@@]1(C)O[C@@H]21`, the GI50 was 1.55 µM in [1]; 3.47 µM in experiment [2]; 3.37 µM in experiment [3]; 3.3 µM in experiment [4]; 4.63 µM in [5]; 2.07 µM in experiment [6]. The GI50 in [7] was 3.88 µM; in experiment [8], 1.83 µM; in [9], 1.69 µM; in [10] it was 1.5 µM. The TGI was determined as 2.93 µM in experiment [1]; 13.2 µM in [2]; 12.6 µM in [3]; 14.1 µM in [4]; 18.4 µM in experiment [5]; 7.86 µM in [6]. The TGI in [7] was 12.7 µM; in experiment [8], 5.14 µM; in experiment [9], 3.63 µM; in experiment [10], 2.97 µM.
As for `NCCCn1c2c(c3ccccc3c1=O)C(=O)c1cc3c(cc1-2)OCO3`, the 50% growth inhibitory concentration (GI50) in experiment [1] is 0.247 µM; in [2], 0.311 µM; in experiment [3], 0.122 µM; in experiment [4] it was 1.05 µM; in experiment [5], 1.51 µM; in experiment [6], 0.374 µM. Besides, the GI50 in [7] was 3.47 µM; in experiment [8], 1.43 µM; in experiment [9], 1.48 µM; in experiment [10], 0.242 µM. In addition, the TGI in experiment [1] was 3.57 µM; in experiment [2] it was 2.82 µM; in experiment [3] it was 0.802 µM; in experiment [4], 4.43 µM; in experiment [5] it was 15 µM; in [6], 9.2 µM. Moreover, the TGI in [7] was 12.8 µM; in [8], 8.1 µM; in [9] it was 6.64 µM; in [10], 1.31 µM.
